Results taken from US6713638B2, “2-amino-3-aroyl-4,5 alkylthiophenes: agonist allosteric enhancers at human A1 adenosine receptors” (priority 2001, dated 2004).
Entries after “also recorded” stand apart in the source; their conditions may differ.

What was measured:
hA1AR = target: T1, hA1AR (Homo sapiens, UniProt P30542); assay: Assay of AE (allosteric enhancer) activity: slowing of 125I-ABA dissociation from the A1AR-G protein ternary complex; type: binding; settings: CHO-K1 membranes; for AE Score, %: 0.1 mM final AE, specifically bound 125I-ABA remaining after 10 minutes of dissociation, Mean ± SEM (N = 3); for AE activity (in words): hA1AR
T1 construct: expressed in transfected cells; membranes
T1 sequence (P30542 1-326): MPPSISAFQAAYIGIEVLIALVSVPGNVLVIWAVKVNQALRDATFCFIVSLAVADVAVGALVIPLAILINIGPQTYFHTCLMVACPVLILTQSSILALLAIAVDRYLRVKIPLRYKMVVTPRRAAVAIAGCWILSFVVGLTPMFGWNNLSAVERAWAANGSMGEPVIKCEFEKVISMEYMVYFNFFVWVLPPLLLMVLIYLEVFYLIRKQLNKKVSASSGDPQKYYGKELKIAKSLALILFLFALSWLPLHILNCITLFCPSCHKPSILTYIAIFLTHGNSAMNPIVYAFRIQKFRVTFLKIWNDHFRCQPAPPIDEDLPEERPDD
Excerpt: The allosteric enhancer (AE) activity was studied at the human A1AR (hA1AR) of a panel of compounds consisting of nine 2-amino-3-aroylthiophenes, (3a-i), eight 2-amino-3-benzoyl-4,5-dimethylthiophenes (13a-h), […] 3-aroyl-2-carboxy-4,5-dimethylthiophenes, (17a-e), ten 2-amino-3-benzoyl-5,6-ihydro-4H-cyclopenta[b]thiophenes, (19a-I), fourteen 2-amino-3-benzoyl-4,5,6,7-tetrahyd robenzo-[b]thiophenes, (20a-n), and fifteen 2-amino-3-benzoyl-5,6,7,8-tetrahydro-4H-cyclohepta[b]thiophenes, (21a-o). An in vitro assay employing the A1AR agonist ^125I-N^6-aminobenzyladenosine (^125I-ABA) and membranes from CHO-K1 cells stably expressing the hA1AR measured, as an index of AE activity, the ability of a candidate AE to slow the dissociation of the radioligand from the A1AR-G protein ternary complex.
The assay of AE activity consisted of three phases: formation of the ^125I-ABA-A1AR-G protein ternary complex; binding of the AE to the allosteric site, and dissociation of the complex by adding a combination of an A1AR antagonist (100 μM cyclopentyltheophylline) and 50 µM GTPγS. This procedure detects only AE activity since phase 3 (dissociation) is affected only by the allosteric activity of the test compound and is not affected by competitive antagonist activity. GTPγS is added to accelerate the dissociation process. […] The assay employed membranes from CHO-K1 cells stably expressing the hA1AR. For agonist binding to equilibrium, the incubation mixture consisted of 10 mM HEPES, pH 7.2, containing 0.5 mM MgCl2, 1 U/mL adenosine deaminase, 0.5 nM ^125I-ABA and 10 μg of membrane protein in a final volume of 100 μL. This phase of the assay was allowed to proceed to equilibrium (>90 minutes) at room temperature. At that point phase 2 was initiated by adding 50 μL of a 0.3 mM solution (0.1 mM final) of a candidate AE or DMSO vehicle to rapidly occupy the allosteric site. Stock solutions of AEs (10 mM) were prepared in DMSO. Five minutes later phase 3 was initiated by the addition of 50 μL of a solution containing 400 μM 8-cyclopentyltheophylline and 200 μM GTPγS. Ten minutes later, residual radioligand bound to Aireceptors was trapped on Whatman GF/C glass fiber filters using a Brandel cell harvester, washed 3 times over a 20 second interval and counted in a γ-counter. The percentage of specifically bound agonist remaining after 10 minutes of dissociation was used to calculate the “score” of AE activity:
AE activity score=100×(B−Bo)/(Beq−Bo)
Where B=residual binding (cpm) bound at the end of 10 minutes of dissociation in the presence of an AE, Bo=residual binding (cpm) at the end of 10 minutes of dissociation in the absence of an AE, and Beq=cpm bound at the end of phase 2. A compound with no AE activity has a score of 0 in this assay. An AE which completely arrests agonist dissociation will have a score of 100.

A1AR = target: T2, A1AR (Homo sapiens, UniProt P30542); assay: A1AR antagonistic activity: competition with equilibrium binding of [3H]CPX; settings: for Antagonist activity, % (% inhibition of specific equilibrium binding of [3H]8-cyclopentyl-1,3-dipropylxanthine): 100 μM, N = 3
T2 sequence (P30542 1-326): T1 sequence (P30542 1-326)
Excerpt: Several of the candidate AEs had substantial antagonistic activity. However, the AE and antagonist activities are unrelated (r^2=0.057, n=28).

| Molecule | AE Score, % (hA1AR) | AE activity (in words) (hA1AR) | Antagonist activity, % (% inhibition of specific equilibrium binding of [3H]8-cyclopentyl-1,3-dipropylxanthine) (A1AR) | antagonist activity (in words) (A1AR; at 100 μM) |
| --- | --- | --- | --- | --- |
| 3-benzoyl-4,5-dimethylthiophene-2-carboxylic acid [Compound 17a] | 0% |  |  |  |
| Nc1sccc1C(=O)c1cccc(F)c1 [Compound 3b] | 0% |  |  |  |
| Nc1sccc1C(=O)c1cccc(Cl)c1 [Compound 3c] | 0% |  |  |  |
| Nc1sccc1C(=O)c1cccc(Br)c1 [Compound 3d] | 0.2 ± 0.03% |  |  |  |
| Nc1sccc1C(=O)c1ccc(F)cc1 [Compound 3e] | 0% |  |  |  |
| Nc1sccc1C(=O)c1ccc(Cl)cc1 [Compound 3f] | 0% |  |  |  |
| Nc1sccc1C(=O)c1ccc(Br)cc1 [Compound 3g] | 0.8 ± 0.3% |  |  |  |
| Nc1sccc1C(=O)c1ccc(Cl)c(Cl)c1 [Compound 3h] | 1.7 ± 0.8% |  |  |  |
| Nc1sccc1C(=O)c1ccc2ccccc2c1 [Compound 3i] | 3.2 ± 1.8% |  |  |  |
| Cc1sc(N)c(C(=O)c2ccccc2)c1C [Compound 13a, (2-amino-4,5-dimethyl-thiophen-3-yl)(phenyl)methanone] | 9% |  |  |  |
| Cc1sc(N)c(C(=O)c2cccc(F)c2)c1C [Compound 13b] | 0% |  |  |  |
| Cc1sc(N)c(C(=O)c2cccc(Cl)c2)c1C [Compound 13c] | 14 ± 1% |  |  |  |
| Cc1sc(N)c(C(=O)c2cccc(Br)c2)c1C [Compound 13d] | 16 ± 4% |  |  |  |
| Cc1cccc(C(=O)c2c(N)sc(C)c2C)c1 [Compound 13e] | 18 ± 0.5% |  |  |  |
| Cc1sc(N)c(C(=O)c2cccc(-c3ccccc3)c2)c1C [Compound 13g] | 12 ± 1.9% |  |  |  |
| Cc1cc(C)c(C(=O)c2c(N)sc(C)c2C)c(C)c1 [Compound 13h] | 0% |  |  |  |
| Cc1sc2c(c1C)C(c1cccc(F)c1)=Nc1sc(C)c(C)c1C(c1cccc(F)c1)=N2 [Compound 14, 4,9-bis-(3-fluorophenyl)-2,3,7,8-tetramethyl-1,6-dithia-5,10-diaza-dicyclopenta[a,e]-cyclooctene] |  | lacked AE activity |  |  |
| Cc1sc(C(=O)O)c(C(=O)c2cccc(C(F)(F)F)c2)c1C [Compound 17b] | 0% |  |  |  |
| Cc1sc(C(=O)O)c(C(=O)c2ccc(-c3ccccc3)cc2)c1C [Compound 17c] | 0% |  |  |  |
| CCOC(=O)c1c(N)sc2c1CCC2 [Compound 19a] | 0.4 ± 0.1% | did not support AE activity; also recorded: None of the cycloalkylthiophenes having a 3-carboxyethyl substituent, namely, 19a, 20a and 21a, was active | 72% |  |
| Nc1sc2c(c1C(=O)c1ccccc1)CCC2 [Compound 19b] | 20 ± 3.6% |  | 63% |  |
| Nc1sc2c(c1C(=O)c1cccc(Cl)c1)CCC2 [Compound 19c] | 16 ± 2% |  |  |  |
| Nc1sc2c(c1C(=O)c1ccc(F)cc1)CCC2 [Compound 19e] | 68 ± 1% |  | 36% |  |
| Nc1sc2c(c1C(=O)c1ccc(Cl)cc1)CCC2 [Compound 19f] | 22 ± 4% |  | 40% |  |

| Molecule | AE Score, % (hA1AR) | AE activity (in words) (hA1AR) | Antagonist activity, % (% inhibition of specific equilibrium binding of [3H]8-cyclopentyl-1,3-dipropylxanthine) (A1AR) | antagonist activity (in words) (A1AR; at 100 μM) |
| --- | --- | --- | --- | --- |
| Nc1sc2c(c1C(=O)c1ccc(Br)cc1)CCC2 [Compound 19g] | 70 ± 7% |  |  |  |
| Nc1sc2c(c1C(=O)c1ccc(-c3ccccc3)cc1)CCC2 [Compound 19h] | 62 ± 5% |  | 12% |  |
| CCOC(=O)c1c(N)sc2c1CCCC2 [Compound 20a] | 3.5 ± 1.8% | did not support AE activity; also recorded: None of the cycloalkylthiophenes having a 3-carboxyethyl substituent, namely, 19a, 20a and 21a, was active | 57% |  |
| Nc1sc2c(c1C(=O)c1ccccc1)CCCC2 [Compound 20b] | 19 ± 5% |  | 35% |  |
| Nc1sc2c(c1C(=O)c1cccc(F)c1)CCCC2 [Compound 20c] | 22 ± 5% |  | 40% |  |
| Nc1sc2c(c1C(=O)c1cccc(Cl)c1)CCCC2 [Compound 20d] | 70 ± 9% |  | 2% |  |
| Nc1sc2c(c1C(=O)c1cccc(Br)c1)CCCC2 [Compound 20e] | 49 ± 1% |  |  |  |
| Nc1sc2c(c1C(=O)c1ccc(F)cc1)CCCC2 [Compound 20f] | 17 ± 3% |  | 51% |  |
| Nc1sc2c(c1C(=O)c1ccc(Cl)cc1)CCCC2 [Compound 20g] | 68 ± 10% |  | 9% |  |
| Nc1sc2c(c1C(=O)c1ccc(Br)cc1)CCCC2 [Compound 20h] | 83 ± 5% |  | 56% |  |
| Nc1sc2c(c1C(=O)c1ccc(I)cc1)CCCC2 [Compound 20i] | 86 ± 13% |  | 31% |  |
| Cc1ccc(C(=O)c2c(N)sc3c2CCCC3)cc1 [Compound 20j] | 19 ± 7% |  | 41% |  |
| N#Cc1ccc(C(=O)c2c(N)sc3c2CCCC3)cc1 [Compound 20k] | 19 ± 0.9% | excellent activity | 19% |  |
| Nc1sc2c(c1C(=O)c1ccc(C3CCCCC3)cc1)CCCC2 [Compound 20m] | 99 ± 6% |  | 45% |  |
| Nc1sc2c(c1C(=O)c1ccc3ccccc3c1)CCCC2 [Compound 20n] | 86 ± 1% |  |  |  |
| CCOC(=O)c1c(N)sc2c1CCCCC2 [Compound 21a] | 0.3 ± 0.01% | did not support AE activity; also recorded: None of the cycloalkylthiophenes having a 3-carboxyethyl substituent, namely, 19a, 20a and 21a, was active | 41% |  |
| Nc1sc2c(c1C(=O)c1ccccc1)CCCCC2 [Compound 21b] | 13 ± 3.8% |  | 0% |  |
| Nc1sc2c(c1C(=O)c1cccc(Cl)c1)CCCCC2 [Compound 21c] | 65 ± 8% |  | 9% |  |
| Nc1sc2c(c1C(=O)c1cccc(Br)c1)CCCCC2 [Compound 21d] | 78 ± 2.6% |  | 12% |  |
| Nc1sc2c(c1C(=O)c1cccc(I)c1)CCCCC2 [Compound 21e] | 86 ± 9% |  |  |  |
| Nc1sc2c(c1C(=O)c1ccc(F)cc1)CCCCC2 [Compound 21f] | 22 ± 2.7% |  |  |  |
| Nc1sc2c(c1C(=O)c1ccc(Cl)cc1)CCCCC2 [Compound 21g] | 65 ± 6.7% |  |  |  |
| Nc1sc2c(c1C(=O)c1ccc(Br)cc1)CCCCC2 [Compound 21h] | 86 ± 3.8% | very high AE activity | 12% | nearly devoid of antagonist activity |
| COc1ccc(C(=O)c2c(N)sc3c2CCCCC3)cc1 [Compound 21k] | 85 ± 10% |  |  |  |
